Reference: patent publication US9144573B2, “Prostaglandin transporter inhibitors” (Albert Einstein College of Medicine of Yeshiva University, priority 2006, dated 2015)
“Also recorded” adds a separate entry of the source.

What was measured:
[1] = In vivo test of acute T26A toxicity; set-up: species or system mice; settings: 100 uL intraperitoneal
Procedure: All mice were male. They received one intraperitoneal injection. The injected volume was 100 uL to all of them, 14 hours after injection, they were all alive, and moved and acted normally.

[2] = biological target: T1, prostaglandin transporter (PGT) (Rattus norvegicus, UniProt Q00910); assay: PGE2 uptake by MDCK cells stably expressing PGT; format: cell-based
T1 construct: GFP; expressed in transfected cells
Procedure: MDCK or 3T3 cells were seeded at 15-20% confluence on 24-well plates. The day on which the cells were seeded was considered day 1. PGE2 uptake experiments were conducted on day 4. All of the PGE2 uptake experiments were conducted at room temperature. On day 4, cells were washed twice with Waymouth buffer (135 mM NaCl, 13 mM H-Hepes, 13 mM Na-Hepes, 2.5 mM CaCl2, 1.2 mM MgCl2, 0.8 mM MgSO4, 5 mM KCl, and 28 mM D-glucose). Then 200 μL of Waymouth buffer containing [^3H]PGE2 was added to each well. At the designated time, the uptake of [^3H]PGE2 was stopped by aspiration of uptake buffer; this was followed by immediate washing twice with 500 μL of chilled Waymouth buffer. Cells were then lysed with 100 μL lysis buffer containing 0.25% SDS and 0.05 N NaOH. 1.5 mL of scintillation solution was added to each well, and intracellular [^3H]PGE2 was counted by MicroBeta Counter.
For preliminary screening of the compounds, 25 μL of Waymouth buffer containing small organic compounds were added to each well; this was immediately followed by the addition of 175 μL of Waymouth buffer containing [^3H]PGE2. In each well, the total volume of uptake medium was 200 μL. Organic compounds were first dissolved in DMSO and then diluted in Waymouth buffer. The percent inhibition of [^3H]PGE2 uptake by compounds was calculated as [(uptakevehicle−uptakeinhibitor)÷(uptakevehicle)]×100.
The initial velocities at various initial extracellular concentrations of PGE2 were determined from the PGE2 uptake in the first 2 minutes; these were linear over the time course of PGE2 uptake. Ki values were obtained by curve fitting the reciprocal of initial velocities of PGE2 uptake versus the reciprocal of extracellular PGE2 concentrations at various concentrations of the inhibitors. At low PGE2 concentrations, the extracellular concentrations were taken as ^3H labeled PGE2, which has a specific activity of 500 μCi/mol. At high concentrations of PGE2, a mixture of ^3H labeled and unlabeled PGE2 was made to a final specific activity of 25 μCi/mol.

[3] = Degradation of exogenously-administered PGE2; format: in vivo, rats; settings: 300 μL of 1 mM IV, PGE2 injected ten minutes later
Procedure: Either 300 μL vehicle (4% DMSO and 4% cremophor in water) or 300 μL of 1 mM T26A was injected into the jugular vein of anesthetized rats (300-325 g weight). Ten minutes later 100 μL of 1 ng/μL PGE2 was injected. One mL blood was withdrawn from the carotid artery at 1, 3, 5, and 10 min after PGE2 injection. PGE2 in blood samples was measured using PGE2 EIA kit from Caymanchem. […] This is also consistent with the FIG. 8 model. Inhibiting PGE2 transport into the cell reduces its intracellular degradation.

[4] = Chronic oral tolerability: metabolic cages and post-mortem H&E histology; format: in vivo, mice; settings: for pathological damage to the gastrointestinal tract: H&E stained tissues
Procedure: The mice described in FIGS. 17-19 were studied in metabolic cages. Six days after they adjusted to the caged condition on regular diet and water, regular drinking water, or vehicle (2% DMSO and 2% cremophor) in drinking water, or 2 mM T26A in drinking water was administered for 16 days. Their water and food intake, weight body and urine volume were recorded daily. Results are shown graphically in FIG. 20.
FIG. 21 provides results of post-mortem studies on the mice of FIGS. 17-19 administered either regular drinking water, or vehicle (2% DMSO and 2% cremophor) in drinking water, or 2 mM T26A in drinking water for 16 days. At the end of experiments, we isolated tissues from the mice and made H&E stained slides of tissues and examined the tissues microscopically.

[5] = Chronic oral administration in drinking water: blood PGE2, urine PGE2, bleeding time; format: in vivo, mice; settings: 2 mM in drinking water, 16 days
Procedure: Regular water, vehicle (2% DMSO and 2% cremophor) in drinking water, or 2 mM T26A in drinking water was administered to 17 week old mice for 16 days. At the end of the experiment, we withdrew blood by cardiac puncture. PGE2 in blood samples was measured by using PGE2 EIA kit from Caymanchem.
The mice described above pertaining to FIG. 17 were placed in metabolic cages. Six days after they adjusted to the caged condition (on regular diet and water) regular drinking water, vehicle (2% DMSO and 2% cremophor) in drinking water, or 2 mM T26A in drinking water was administered for 16 days. Urine was collected daily. PGE2 in urine samples was measured using PGE2 EIA kit from Caymanchem. […] This is also consistent with the FIG. 8 model. Inhibiting PGE2 transport into the cell reduces its intracellular degradation such that more is secreted without intracellular degradation.
At the end of the experiment shown in FIGS. 17-18, bleeding time was measured using the tail cut method. About 1 cm tails of restrained mice were cut off; the diameter of the cut was kept the same for all mice. The emerging blood was blotted every 15 seconds without touching the wound. Bleeding time was measured as the point at which bleeding had stopped for 1 minute. Results are shown graphically in FIG. 19. […] It is believed that the blockade of endothelial PCT allows intravascular accumulation of PGE2 or prostacyclin, either of which can inhibit platelet aggregation.

[6] = Endogenous PGE2 in circulating blood after jugular vein injection; format: in vivo, rats; settings: 300 μL of 1 mM, blood 10 minutes later
Procedure: Either 300 μL vehicle (4% DMSO and 4% cremophor in water) or 300 μL of 1 mM T26A was injected into the jugular vein of anesthetized rats (300-325 g weight). One mL of blood was obtained from the carotid artery 10 minutes later, PGE2 in blood samples was measured using PGE2 EIA kit from Caymanchem. […] This finding is consistent with the model advanced in Example 2 (FIG. 8). Since PGT transports PGE2 into the cell, inhibiting PGT would be expected to inhibit removal of PGE2 from blood to be internalized and degraded.

[7] = 2 mM in drinking water, 16 days

SMILES: [N-]=[N+]=NCCOCCOCCNC(=O)c1ccc(Nc2nc(NCCOCCOCCNC(=O)c3ccccc3)nc(Nc3ccc(O)cc3)n2)cc1 [T26A]
- Condition ([1]; 6 mM, 3% DMSO, 3% Cremophor in water): Appeared normal.
- Condition ([1]; 25 mM, 5% DMSO, 5% Cremophor in water): More actively than mice #1,; also recorded: More active than mice #1, #4
- Condition ([1]; 250 mM in 100% DMSO): Rarely moved for the first
- Ki ([2]; Example 2): 300 nM
- inhibition at 5 µM ([2]; MDCK, read-out: % Inhib. at 5 μM): 92%
- Ki ([2]; Table 2): 380 nM
- mode of inhibition ([2]; double reciprocal analysis): competitively inhibits
- degradation of exogenously-administered PGE2 [3]: inhibited PGE2 degradation; also recorded: reduces the degradation
- effects on water and food intake, body weight, daily urine volume [4, 7]: did not have any observable effects; also recorded: does not have any apparent effects
- pathological damage to the gastrointestinal tract [4, 7]: did not cause any pathological damage
- pathological damage to the gastrointestinal tract ([4]; 2 mM in drinking water, 16 days, listed as T26): does not cause any pathological damage
- toxicity on chronic oral basis ([4]; doses sufficient to raise plasma and urinary PGE2): non-toxic
- plasma PGE2 levels ([5]; mice): increased plasma PGE2 levels four-fold
- urinary excretion of endogenous PGE2 ([5]; mice): increased urinary excretion of endogenous PGE2; also recorded: increases PGE2 excretion in urine
- bleeding time ([5]; tail cut method): increases bleeding time
- plasma PGE2 concentrations [6]: greater than two-fold increase; also recorded: increases endogenous PGE2
